The results in this text go back to patent US20220071970A1, “QUINUCLIDINE-3-ONE DERIVATIVES AND THEIR USE IN CANCER TREATMENT” (Aprea Therapeutics AB, priority 2018, published 2022).

pIC50: −log10 of the molar value.

The subject of series [1] is SaOS-2 His273 mtp53 human osteosarcoma cell line. The series is described as follows: In vitro efficacy study using the SaOS-2 His273 protocol (CellTiter-Glo viability, 72 h). Type of series: cell-based. The conditions noted are these: SAOS-2, growth suppression, 72 hours incubation, CellTiter-Glo, read-out: SaOS-2 His273 IC50. As for the experimental part: SaOS-2 His273 mtp53 is a human osteosarcoma cell line which has been genetically engineered at OnkPat CCK to express His273 mutated p53.
3000 cells/well (50 μl) were seeded into masked (black or white with clear bottom) 96-well cell culture plates using Iscove's Modified Dulbecco's Medium supplemented with 10% heat inactivated (56° C. for 60 min) fetal calf serum. The plates were then incubated for 4 hours, allowing the cells to attach. The test compounds were dissolved in DMSO or water to a concentration of 0.01 M and then further diluted to desired concentrations using the cell medium. 50 μl of freshly diluted test compound from fresh stock was added to the wells. The plates were then incubated for 72 hours.
For viability detection, CellTiter-Glo® Luminescent Cell Viability Assay (CTG) was used. CTG is a homogeneous “add-mix-measure” format method of determining the number of viable cells in culture based on quantitation of the ATP present, an indicator of metabolically active cells. The luminescence was measured using the PerkinElmer Victorx4 instrument.
The average of the signal values for the untreated cells was calculated for each plate. The % of growth suppression was calculated as:
100−((Signal sample/Signal untreated cells)×100).
The results of the SaOs-2 His273 analyses were expressed as IC50 values, i.e. concentration that suppresses growth of at least 50% of the cells. The IC50 values of various compounds according to the invention and of some comparative compounds are shown in Table 1, Table 2, Table 3 and Table 4.

For series [2], the system named is MDA-MB-231-Luc human breast cancer cell line carrying mutant p53 (R280K). As to the kind of experiment: In vivo efficacy study, orthotopic MDA-MB-231-Luc breast cancer xenograft in nude mice. On the set-up: species or system nude mice (Hsd:AthymicNude-Foxnlnu). The conditions noted are these: 42 or 125 mg/kg intraperitoneally twice daily, 3 cycles of 5 days, compared to control animals. As for the experimental part:
A: Luciferase luminescence from mice xenografted with MDA-MB-231-Luc breast cancer cells. B: Tumor weight at day 33 after beginning of treatment.
The compound of Example 4 was administered intraperitoneally twice daily at 42 or 125 mg/kg to nude mice (Hsd:AthymicNude-Foxnlnu) ortotopically xenografted with the human breast cancer cell line MDA-MB-231-Luc, carrying mutant p53 (R280K). To make MDA-MB-231-Luc, the cell line MDA-MB-231 was stably transfected with a synthetic gene for firefly luciferase, Luc2 (pGL4, Promega). Thereby, the tumor load may be externally monitored by luminescence measurement (radiance values; photon/second/cm^2/steradian). 5×10^6 MBA-MB-231-luc cells were injected, and eight days later the animals were stratified into treatment groups and control, 8 animals in each group, based on luminescence measurement. Treatment was started on day 11 and done in 3 cycles of 5 days each, with 2 days recovery. Tumor progression was evaluated by non-invasive in vivo imaging during the second cycle (day 18) and at the end of treatment (day 32). On day 33, the animals were sacrificed and the tumors excised and weighed.

Series [3] in a line: Stability study in pH 4 buffer at 25° C. Type of series: physicochemical. The conditions noted are these: for % Parent remaining at 48 h: LCMS, normalized to internal standard; for half-life at 0.2 mg/mL: pH 4 acetate buffer, 1st order kinetics. As for the experimental part: Chemical stability at low pH was investigated for selected compounds. Compounds that are highly unstable may not be suitable as drug candidates, for example due to potential difficulties in achieving and maintaining a stable and therapeutically effective formulation. For instance, compounds intended for oral administration must be chemically stable at the low pH observed in the stomach in order for this to be an acceptable route.
A pH 4 buffer was prepared by mixing 4.1 mL of 0.2 M acetic acid (aq.) with 0.9 mL of a 0.2 M sodium acetate (aq.) and then diluting to 10 mL with distilled water. The pH was determined by pH meter to 4.04.
Benzylpiperidine-4-ol was used as internal standard. A 1 mg/mL stock solution was prepared by dissolving 3.5 mg benzylpiperidine-4-ol in 3.5 mL of water. 500 μL of the stock solution were added to pH 4 buffer (5 mL) and the mixture was shaken.
A 1 mg/mL solution in acetonitrile was prepared for each test compound. Two drops of water were added to ca. 1 mL of acetonitrile in order to completely dissolve Example 2.
To 400 μL of pH 4 buffer with internal standard were added 100 μL of 1 mg/mL test compound solution. The solutions were stored at 25° C. and analyzed by LCMS directly and at different time points up to 48 hours. The [M+H]^+ ion for parent compound (test compound) and the internal standard (m/z 192) were extracted and integrated. The area for the parent compound was normalized to the area of the internal standard for each time point.
The half-life was calculated based on 1st order kinetics (t %=ln2/k). The rate constant (k) was obtained by plotting In[normalized peak area] against time.
Results for half-life and percent parent compound remaining at 48 h for selected examples and a comparative example are shown in Table 5.

`O=C1C2CCN(CC2)C1CNC(=O)C(F)(F)F` (racemic) [Example 4, 2,2,2-trifluoro-N-((3-oxoquinuclidin-2-yl)methyl)acetamide]: the pIC50 in series [1] is 5.25. The “tumor cell migration as measured by radiance of luminescence (FIG. 1A)” value in series [2] (imaging day 18 and day 32) was “reduced tumor cell migration compared to control animals”. Moreover, the “tumor weight (FIG. 1B)” value in series [2] (tumors excised day 33) was “reduced tumor weight compared to control animals”.

For `Cc1cn(CC2C(=O)C3CCN2CC3)c(=O)[nH]c1=O` (racemic) [Example 24, 5-methyl-1-((3-oxoquinuclidin-2-yl)methyl)pyrimidine-2,4(1H,3H)-dione], in series [1], the pIC50 was 5.19. For the same molecule, in series [3], the “% Parent remaining at 48 h” value is over 95% and the half-life at 0.2 mg/mL was over 630 h.

`Cc1cn(CC2C(=O)C3CCN2CC3)c(=O)n(CC2C(=O)C3CCN2CC3)c1=O` (stereo not drawn) [Example 26, 5-methyl-1,3-bis((3-oxoquinuclidin-2-yl)methyl)-pyrimidine-2,4(1H,3H)-dione]: in series [1], the pIC50 was 5.40. In addition, in series [3], the “% Parent remaining at 48 h” value is 73% and the half-life at 0.2 mg/mL was 70 h.

What is called pIC50 is the IC50 on a negative log10 scale, so that one unit is a factor of ten. For orientation: half-life means the time in which the quantity being followed falls by half. Low readings indicate fast loss, high ones slow loss.
